PubChem BioAssay (NCI)
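Growth conditions: 96-well plates. Treatment: test compound, 48 hours, 5 concentrations. Analysis: linear interpolation between bracketing concentrations; unreached endpoints set to highest concentration. TGI denotes the concentration required for complete inhibition of growth.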

Legend:
Assay in all cases: NCI anticancer screen, dose series, 48 h
MDA-MB-231 breast = tested on: MDA-MB-231 breast
BT-549 breast = tested on: BT-549 breast
HOP-92 NSCLC = tested on: HOP-92 NSCLC
UACC-62 melanoma = tested on: UACC-62 melanoma
OVCAR-8 ovarian = tested on: OVCAR-8 ovarian
RXF 393 renal = tested on: RXF 393 renal
CCRF-CEM leukemia = tested on: CCRF-CEM leukemia
NCI-H522 lung = tested on: NCI-H522 lung
U251 CNS = tested on: U251 CNS
NCI-H23 lung = tested on: NCI-H23 lung
UO-31 renal = tested on: UO-31 renal
SF-295 CNS = tested on: SF-295 CNS
MDA-N = tested on: MDA-N
HCT-15 colon = tested on: HCT-15 colon
NCI-H226 lung = tested on: NCI-H226 lung
T-47D breast = tested on: T-47D breast
MDA-MB-435 = tested on: MDA-MB-435
MALME-3M melanoma = tested on: MALME-3M melanoma
NCI/ADR-RES ovarian = tested on: NCI/ADR-RES ovarian
SNB-75 CNS = tested on: SNB-75 CNS
MOLT-4 leukemia = tested on: MOLT-4 leukemia
K-562 leukemia = tested on: K-562 leukemia
UACC-257 melanoma = tested on: UACC-257 melanoma
SF-539 CNS = tested on: SF-539 CNS
OVCAR-3 ovarian = tested on: OVCAR-3 ovarian
IGROV1 ovarian = tested on: IGROV1 ovarian
SK-OV-3 ovarian = tested on: SK-OV-3 ovarian
SNB-19 CNS = tested on: SNB-19 CNS
KM12 colon = tested on: KM12 colon
NCI-H460 lung = tested on: NCI-H460 lung
TK-10 renal = tested on: TK-10 renal
SK-MEL-5 melanoma = tested on: SK-MEL-5 melanoma
SN12C renal = tested on: SN12C renal
SR leukemia = tested on: SR leukemia
OVCAR-4 ovarian = tested on: OVCAR-4 ovarian
HCT-116 colon = tested on: HCT-116 colon
PC-3 prostate = tested on: PC-3 prostate
786-0 renal = tested on: 786-0 renal
COLO 205 colon = tested on: COLO 205 colon
HL-60(TB) leukemia = tested on: HL-60(TB) leukemia
SK-MEL-28 melanoma = tested on: SK-MEL-28 melanoma
HT29 colon = tested on: HT29 colon
HCC-2998 colon = tested on: HCC-2998 colon
ACHN renal = tested on: ACHN renal
EKVX NSCLC = tested on: EKVX NSCLC
OVCAR-5 ovarian = tested on: OVCAR-5 ovarian
A549 NSCLC = tested on: A549 NSCLC
LOX IMVI melanoma = tested on: LOX IMVI melanoma
MCF7 breast = tested on: MCF7 breast
SW-620 colon = tested on: SW-620 colon
CAKI-1 renal = tested on: CAKI-1 renal
SK-MEL-2 melanoma = tested on: SK-MEL-2 melanoma
DU-145 prostate = tested on: DU-145 prostate
M14 melanoma = tested on: M14 melanoma
HOP-62 NSCLC = tested on: HOP-62 NSCLC
RPMI-8226 leukemia = tested on: RPMI-8226 leukemia
A498 renal = tested on: A498 renal

COC(=O)C1=CC(=O)OC1(OO)c1ccc(Br)cc1 (stereo unspecified)
TGI (MDA-MB-231 breast): > 100 µM
TGI (BT-549 breast): > 100 µM
TGI (HOP-92 NSCLC): > 100 µM
TGI (UACC-62 melanoma): > 100 µM
TGI (OVCAR-8 ovarian): > 100 µM
TGI (RXF 393 renal): > 100 µM
TGI (CCRF-CEM leukemia): > 100 µM
TGI (NCI-H522 lung): > 100 µM
TGI (U251 CNS): > 100 µM
TGI (NCI-H23 lung): > 100 µM
TGI (UO-31 renal): > 100 µM
TGI (SF-295 CNS): > 100 µM
TGI (MDA-N): > 100 µM
TGI (HCT-15 colon): > 100 µM
TGI (NCI-H226 lung): > 100 µM
TGI (T-47D breast): > 100 µM
TGI (MDA-MB-435): > 100 µM
TGI (MALME-3M melanoma): > 100 µM
TGI (NCI/ADR-RES ovarian): > 100 µM
TGI (SNB-75 CNS): > 100 µM
TGI (MOLT-4 leukemia): > 100 µM
TGI (K-562 leukemia): > 100 µM
TGI (UACC-257 melanoma): > 100 µM
TGI (SF-539 CNS): > 100 µM
TGI (OVCAR-3 ovarian): > 100 µM
TGI (IGROV1 ovarian): > 100 µM
TGI (SK-OV-3 ovarian): > 100 µM
TGI (SNB-19 CNS): > 100 µM
TGI (KM12 colon): > 100 µM
TGI (NCI-H460 lung): > 100 µM
TGI (TK-10 renal): > 100 µM
TGI (SK-MEL-5 melanoma): > 100 µM
TGI (SN12C renal): > 100 µM
TGI (SR leukemia): > 100 µM
TGI (OVCAR-4 ovarian): > 100 µM
TGI (HCT-116 colon): > 100 µM
TGI (PC-3 prostate): > 100 µM
TGI (786-0 renal): > 100 µM
TGI (COLO 205 colon): > 100 µM
TGI (HL-60(TB) leukemia): > 100 µM
TGI (SK-MEL-28 melanoma): > 100 µM
TGI (HT29 colon): > 100 µM
TGI (HCC-2998 colon): > 100 µM
TGI (ACHN renal): > 100 µM
TGI (EKVX NSCLC): > 100 µM
TGI (OVCAR-5 ovarian): > 100 µM
TGI (A549 NSCLC): > 100 µM
TGI (LOX IMVI melanoma): > 100 µM
TGI (MCF7 breast): > 100 µM
TGI (SW-620 colon): > 100 µM
TGI (CAKI-1 renal): > 100 µM
TGI (SK-MEL-2 melanoma): > 100 µM
TGI (DU-145 prostate): > 100 µM
TGI (M14 melanoma): > 100 µM

CS(=O)(=O)OCOS(C)(=O)=O
TGI (MDA-MB-231 breast): > 100 µM
TGI (HOP-62 NSCLC): > 100 µM
TGI (RPMI-8226 leukemia): > 100 µM
TGI (BT-549 breast): > 100 µM
TGI (HOP-92 NSCLC): > 100 µM
TGI (UACC-62 melanoma): > 100 µM
TGI (OVCAR-8 ovarian): > 100 µM
TGI (CCRF-CEM leukemia): 44.5 µM
TGI (U251 CNS): > 100 µM
TGI (NCI-H23 lung): > 100 µM
TGI (UO-31 renal): > 100 µM
TGI (SF-295 CNS): > 100 µM
TGI (MDA-N): > 100 µM
TGI (HCT-15 colon): > 100 µM
TGI (NCI-H226 lung): > 100 µM
TGI (MDA-MB-435): > 100 µM
TGI (NCI/ADR-RES ovarian): > 100 µM
TGI (MOLT-4 leukemia): > 100 µM
TGI (K-562 leukemia): > 100 µM
TGI (UACC-257 melanoma): > 100 µM
TGI (SF-539 CNS): > 100 µM
TGI (OVCAR-3 ovarian): > 100 µM
TGI (IGROV1 ovarian): > 100 µM
TGI (SK-OV-3 ovarian): > 100 µM
TGI (SNB-19 CNS): > 100 µM
TGI (KM12 colon): > 100 µM
TGI (NCI-H460 lung): > 100 µM
TGI (TK-10 renal): > 100 µM
TGI (SK-MEL-5 melanoma): > 100 µM
TGI (SN12C renal): > 100 µM
TGI (SR leukemia): 47.9 µM
TGI (OVCAR-4 ovarian): > 100 µM
TGI (HCT-116 colon): > 100 µM
TGI (PC-3 prostate): > 100 µM
TGI (786-0 renal): > 100 µM
TGI (COLO 205 colon): > 100 µM
TGI (HL-60(TB) leukemia): > 100 µM
TGI (A498 renal): > 100 µM
TGI (SK-MEL-28 melanoma): > 100 µM
TGI (HT29 colon): > 100 µM
TGI (HCC-2998 colon): > 100 µM
TGI (ACHN renal): > 100 µM
TGI (EKVX NSCLC): > 100 µM
TGI (OVCAR-5 ovarian): > 100 µM
TGI (A549 NSCLC): > 100 µM
TGI (LOX IMVI melanoma): > 100 µM
TGI (MCF7 breast): > 100 µM
TGI (SW-620 colon): > 100 µM
TGI (CAKI-1 renal): > 100 µM
TGI (SK-MEL-2 melanoma): > 100 µM
TGI (DU-145 prostate): > 100 µM
TGI (M14 melanoma): > 100 µM
